Data taken from patent US20180311297A1, “PHARMACEUTICAL COMPOSITION FOR INCREASING CONTENT AND AVAILABILITY OF CYCLIC ADENOSINE MONOPHOSPHATE IN A BODY AND PREPARATION THEREOF” (priority 2012, published 2018).
Structures can show the parent of a compound that is named as a salt.

Key:
[1] = tested on: depression patients; details: STAR*D study, over 2800 depression patients; cited from earlier work
[2] = tested on: tail-hanged mice; assay: tail-hang experiment on mice; type: in vivo; details: intragastric, one week; Embodiment 1 medium dose 40 mg/kg/d, or positive control; vs control P<0.05
Source text: (§1) The inventor conducted animal behavior experiments, including the tail-hang experiment on mice, the forced-swim experiment on rats, the forced-swim experiment on mice, the unpredictable long-term stimulus experiment on rats, the olfactory bulb lesion experiment on rats and others, according to the pathogenetic mechanism and clinical symptoms of depression.

[3] = tested on: unpredictably long-term stressed rats; assay: unpredictable long-term stimulus (CUMS) experiment on rats: sucrose intake measurement; type: in vivo, rat; details: CUMS model rats, 21 consecutive days; low dose of Embodiment 1 (15 mg/kg/d) or positive group; vs control P<0.01
Source text: (§2) The inventor conducted animal behavior experiments, including the tail-hang experiment on mice, the forced-swim experiment on rats, the forced-swim experiment on mice, the unpredictable long-term stimulus experiment on rats, the olfactory bulb lesion experiment on rats and others, according to the pathogenetic mechanism and clinical symptoms of depression. 1.2 The pharmaceutical composition of Embodiment 1 was intragastrically administered to rats under the chronic unpredictable mild stress (CUMS) model with the dose of 15 mg/kg/d, 30 mg/kg/d and 60 mg/kg/d for 21 consecutive days.

[4] = tested on: olfactory bulb lesion model rats; assay: olfactory bulb lesion experiment: open field box test; type: in vivo, rat; details: 24 consecutive days, high dose of Embodiment 1 (60 mg/kg/d) or Paroxetine of 3 mg/kg/d, compared to control group
Source text: The inventor conducted animal behavior experiments, including the tail-hang experiment on mice, the forced-swim experiment on rats, the forced-swim experiment on mice, the unpredictable long-term stimulus experiment on rats, the olfactory bulb lesion experiment on rats and others, according to the pathogenetic mechanism and clinical symptoms of depression. 1.3 The pharmaceutical composition of Embodiment 1 was intragastrically administered to olfactory bulb lesion model rats with the dose of 15 mg/kg/d, 30 mg/kg/d and 60 mg/kg/d for 24 consecutive days.

[5] = tested on: unpredictably long-term stressed rats; assay: unpredictable long-term stimulus (CUMS) experiment on rats: jumping test; type: in vivo, rat; details: CUMS model rats, 21 consecutive days; low dose of Embodiment 1 (15 mg/kg/d) or positive group; vs control P<0.01
Source text: as §2

[6] = tested on: unpredictably long-term stressed rats; assay: unpredictable long-term stimulus (CUMS) experiment on rats: open field box test; type: in vivo, rat; details: CUMS model rats, 21 consecutive days; low dose of Embodiment 1 (15 mg/kg/d) or positive group; vs control P<0.01
Source text: as §2

[7] = tested on: unpredictably long-term stressed rats; assay: unpredictable long-term stimulus (CUMS) experiment on rats: body weight measurement; type: in vivo, rat; details: CUMS model rats, 21 consecutive days; low dose of Embodiment 1 (15 mg/kg/d) or positive group; compared to control group
Source text: as §2

[8] = tested on: forced-swim mice; assay: forced-swim experiment on mice; type: in vivo; details: intragastric, one week; Embodiment 1 medium dose 40 mg/kg/d, or positive control; vs control P<0.05
Source text: as §1

[9] = tested on: cAMP; assay: level of cAMP in hippocampus of normal rats 8 hours after administration (ELISA); type: in vivo, rat; details: 8 hours after intragastric 5 mg/kg (positive control drug)
Experimental: 8 hours after normal rats were intragastrically administered with the pharmaceutical of Embodiment 1, their hippocampi were taken out. The variations in the levels of cAMP and phospho-CREB (p-CREB) in the hippocampus were determined using enzyme-linked immunosorbent assay (ELISA), the variations on the activities of the cAMP-dependent PKA were determined using bioluminescent assay, and the variations in the activities of PDE were determined using a fluorescence method. […] The experimental data were statistically analyzed and plotted using Origin […].5 software. 2. […] The sample was determined using the ParameterTM Cyclic AMP Assay ELISA kit (R&D Systems, Inc., U.S.). The sample was defrosted to room temperature, and the level of cAMP in the sample was determined using competitive ELISA. The value of optical density (OD) of the sample was determined at 450 nm using the multi-mode microplate reader, and the level of cAMP in the sample was calculated according to the standard curve. 5.1 The level of cAMP in the rat's hippocampus: The cAMP concentration in the homogenate of the rat's hippocampus was determined using the ELISA assay, and the level of cAMP contained in the hippocampus tissue was obtained by dividing the […], and is presented as pmol/g tissue (referring to FIG. 5).

[10] = tested on: forced-swim rats; assay: forced-swim experiment on rats; type: in vivo, rat; details: intragastric, one week; Embodiment 1 medium dose 30 mg/kg/d, or positive control; vs control P<0.05
Source text: as §1

[11] = tested on: phosphodiesterase 4 (PDE4); details: cited from earlier work

## Cl.O=C1CC2(CCCC2)CC(=O)N1CCCCN1CCN(c2ncccn2)CC1 [Buspar®]
[1]
  remission rate: about 30%

## Br.CN(C)CCCC1(c2ccc(F)cc2)OCc2cc(C#N)ccc21 (stereo not shown) [Celexa®]
[1]
  remission rate: about 30%

## COc1ccc(C(CN(C)C)C2(O)CCCCC2)cc1.Cl (stereo not shown) [Effexor®]
[1]
  remission rate: about 30%

## Fc1ccc([C@@H]2CCNC[C@H]2COc2ccc3c(c2)OCO3)cc1 [Paroxetine, Paroxetine hydrochloride]
[2]
  non-movement time for the tail-hanged mice: significantly shorter
[3]
  sucrose consumption: significantly increased
[4]
  decrease of the horizontal movement and vertical movement caused by the olfactory bulb lesion (open field box test): significantly improved
[5]
  number of errors in rat jumping trial: significantly decreased
[6]
  horizontal movement and vertical movement: significantly increased
[7]
  body weight gains: significantly increased
[8]
  non-movement time for the forced-swim mice: significantly shorter
[9]
  initiation of the cAMP-PKA-CREB (p-CREB) pathway: cannot initiate
[10]
  non-movement time for the forced-swim rats: significantly shorter

## COc1ccc(C2CNC(=O)C2)cc1OC1CCCC1 (stereo not shown) [Rolipram®]
[11]; background statement
  side effects: severe emesis
[11]; experimental results referred to in background
  anti-depression effect: significant anti-depression effect

## CC(NC(C)(C)C)C(=O)c1cccc(Cl)c1.Cl (stereo not shown) [Wellbutrin®]
[1]
  remission rate: about 30%

## CN[C@H]1CC[C@@H](c2ccc(Cl)c(Cl)c2)c2ccccc21.Cl [Zoloft®]
[1]
  remission rate: about 30%
